How the values were obtained:
JMN [1] = assay: Cell surface HLA-A / HLA-ABC by flow cytometry (BB7, W6/32) after 72 hours; type: cell-based, human
Text: 1% DMSO was used as a vehicle control. […] Experimental setup was similar to FIG. 2A.

PC9 = assay: Cell surface HLA-A by flow cytometry (BB7) after 72 hours with inhibitor; type: cell-based, human; conditions: PC9, activating EGFR mutation (del E746-A750)
Meso34 [2] = assay: as above; type: cell-based, human; conditions: Meso34 without an EGFR mutation, same dose
[3] = test system: NSCLC cell lines H827, H1975, H1299, A549; assay: Surface HLA-ABC (MHC-I) on panel of NSCLC cell lines; type: cell-based, human; conditions: for surface MHC-I: cell lines that had the sensitizing mutation; for sensitivity to up-regulating surface MHC-I: cell lines with downstream activating RAS mutations
Text: (§1) 1% DMSO was used as a vehicle control. […] Use of ESK antibody to a peptide derived from the oncoprotein WT1 that is presented on HLA-A0201. […] PRAME is a TCRm antibody against an epitope of PRAME tumor antigen presented on HLA-A0201 on SKMEL5. Experimental setup was similar to FIG. 2A. […] FIG. 2D: Use of EGFRi erlotinib and afatanib, along with MEKi trametinib on H827 (EGFR E746del-A750 mutation), H1975 (L858R/T790M), H1299 (EGFR wt, NRAS Q61K), and A549 (EGFR wt/KRAS G12S) to alter surface HLA-ABC levels. Student's t-test was done to compare each treatment to vehicle control. *P values annotated as in FIG. 1E. […] FIG. 2F: H1299 cells were transduced with retroviral vectors expressing EGFR L858R and were analyzed for surface pan HLA-ABC using W6/32. […] The NRAS Q61K mutation was introduced into H827 and cells were treated with EGFRi or MEKi as done in FIG. 2G.
(§2) Small molecule inhibitor studies: Compounds were obtained from SelleckChem (Houston, Tx. USA). Drugs were used at sub-cytostatic doses by titration using the Cell Titer Glo assay (Promega). All drugs were used in vitro at indicated doses in 1% dimethyl sulfoxide (DMSO).
The mechanism by which the MAP kinase pathway suppresses levels of HLA-A is unknown. Given that many cancers have activating mutations in specific genes in the MAP kinase pathway, inhibition of the identified hits was investigated in cell lines harboring mutations in EGFR, or downstream in Ras. A panel of NSCLC cell lines with activating mutations in EGFR, such as the delE746-A750 in H827, or L858R/T790M mutation in H1975, was utilized. The delE746-A750 confers sensitivity to erlotinib, whereas the T790M confers resistance to erlotinib and other first generation EGFR inhibitors, but is sensitive to afatanib (Cross et al., 2014, Cancer Discov 4(9):1046-61). EGFR wild type NSCLC lines with downstream mutations, such as activating NRAS Q61K in H1299 or KRAS G12S in A549, were also utilized.

H827 = conditions: similar level of suppression of pERK
Text: as §1, §2

HLA-A and B2M protein = conditions: erlotinib (EGFRi), 72 hours
Text: The HLA-A and B2M promoter was cloned upstream of the Gaussian Luciferase (GLuc) gene. Secreted embryonic alkaline phosphatase (SEAP) under the CMV promoter was used as a normalization factor.

JMN [4] = assay: ADCC assay (51Cr release) with TCR mimic antibody ESKM after trametinib; type: cell-based, human; conditions: 72 hours trametinib, non-cytotoxic dose
Experimental: (§3) Cells were incubated for 72 hours with either vehicle control or trametinib and subsequently exposed to either isotype antibody or ESKM in ADCC assay. FIG. 3B depicts an ADCC assay on Meso34 (human mesothelioma). The experimental setup was similar to FIG. 3A. FIG. 3C depicts an ADCC assay on SKMEL5 (human melanoma) using TCRm mAb PRAME against the PRAME epitope; the experimental setup was similar to FIG. 3A. FIG. 3D: B16F10 cells were exposed to pmel-1 (gp100) specific TCR T-cells for 24 hours, then killing was assessed using a clonogenic assay described previously (Budhu et al. 2010, J Exp Med 207:223-235)
(§4) ADCC: The HLA-A*02:01 positive mesothelioma cell lines JMN and Meso34, along with the melanoma cell line SK-MELS were used in the ADCC assay as a target (May et al. 2007, Clin Cancer Res 13:4547-4555) . Antibodies ESKM (Veomett et al., 2014, Clin Cancer Res 20(15):4036-4046), PRAME, or its isotype control hIgG1 at 3 ug/ml were incubated with target cells and fresh healthy donor PBMCs at different effector/target ratios for 6 hours, along with indicated doses of vehicle or trametinib in RPMI (Roswell Park Memorial Institute medium) supplemented with 10% fetal bovine serum (FBS). The supernatant was harvested, and the cytotoxicity was measured by a ^51Cr release assay (Perkin Elmer).

Meso34 [5] = assay: as above; type: cell-based, human; conditions: 72 hours trametinib, non-cytotoxic dose
Experimental: as §3, §4

SK-MEL-5 = assay: ADCC assay (51Cr release) with TCR mimic mAb Pr20m (PRAME) after trametinib; type: cell-based, human
Experimental: as §3, §4

pERK = assay: Titration of MEK inhibition by western blot for pERK and ERK; type: cell-based, human; conditions: JMN and Meso34 cells; time=1 hour
Text: (§5) It was hypothesized that the inhibition of the MAP kinase pathway might act on other components of the antigen presentation machinery in addition to MHC-I molecules, thus allowing increased epitope expression in the more abundant cell surface HLA molecules.

JMN [6] = assay: Time course of MEK inhibition and HLA-A / B2M protein, western blot; type: cell-based, human; conditions: 50 nM trametinib
Experimental: FIG. 11: JMN was treated with 50 nM trametinib and lysate was analyzed as in FIG. 4C at different time points.
as §5

For CN(C)C/C=C/C(=O)Nc1cc2c(Nc3ccc(F)c(Cl)c3)ncnc2cc1O[C@H]1CCOC1 [afatanib], the HLA-A up-regulation response (JMN [1]; 72 hours, BB7 binding) was “responded”, the HLA-A up-regulation response (PC9) was “responded” and the HLA-A up-regulation response (Meso34 [2]) was “did not respond”. For the same molecule, the “surface MHC-I” value [3] was “up-regulated” and the “sensitivity to up-regulating surface MHC-I” value [3] was “not observed”.

With C#Cc1cccc(Nc2ncnc3cc(OCCOC)c(OCCOC)cc23)c1 [erlotinib] the “surface MHC-I” value [3] was “up-regulated”, the “sensitivity to up-regulating surface MHC-I” value [3] was “not observed” and the “surface MHC-I response compared with MEKi by trametinib” value (H827) was “responded more strongly”. For the same molecule, the “HLA-A and B2M protein” value (HLA-A and B2M protein) was “dose dependent increase”.

In the case of CC(=O)Nc1cccc(-n2c(=O)n(C3CC3)c(=O)c3c(Nc4ccc(I)cc4F)n(C)c(=O)c(C)c32)c1 [trametinib], the “cytotoxicity of ESKM (ADCC)” value (JMN [4]) is reported as “increased”, the “cytotoxicity of ESKM (ADCC)” value (Meso34 [5]) is reported as “increased” and the “increased cytotoxicity of Pr20m mAb (ADCC)” value (SK-MEL-5) is reported as “also observed”. For the same molecule, the “dose to which cells were sensitive (pERK inhibition)” value (pERK) was “less than 10 nM”, the “time of maximal increases of HLA-A and B2M” value (JMN [6]) was 72 h and the “time of maximal inhibition of MEK” value (JMN [6]) was 3 h.

For “EGF: epidermal growth factor, EGF protein that turns on EGFR (NSDSECPLSHDGYCLHDGVCMYIEALDKYACNCVVGYIGERCQYRDLKWWELR; Epidermal growth factor; UniProt P01133 971-1023, looked up)”, the “surface HLA-A” value (JMN [1]; 10 nM EGF for 72 hours) was “suppressed” and the “surface HLA-A,B,C” value (JMN [1]; 10 nM EGF for 72 hours) was “suppressed”.
